Data from publication PMC3081901 (Bioorganic & medicinal chemistry letters, 2010).

Target: T1, human A1 AR (Homo sapiens, UniProt P30542)
T1 sequence (P30542 1-326): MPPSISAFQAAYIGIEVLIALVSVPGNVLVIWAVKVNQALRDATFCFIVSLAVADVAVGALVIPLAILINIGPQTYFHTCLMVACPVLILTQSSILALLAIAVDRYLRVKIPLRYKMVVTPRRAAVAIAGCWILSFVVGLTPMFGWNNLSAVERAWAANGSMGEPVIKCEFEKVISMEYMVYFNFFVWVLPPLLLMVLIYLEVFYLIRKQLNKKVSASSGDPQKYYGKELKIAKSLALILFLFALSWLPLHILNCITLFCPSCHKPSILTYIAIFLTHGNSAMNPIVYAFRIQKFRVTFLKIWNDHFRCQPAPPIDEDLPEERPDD
Assay: Competition radioligand binding, human A1 AR

Ki: 4.18 ± 0.92 µM
SMILES: Nc1nc2c(cnn2CCCc2ccc(OCC(=O)NCCNCCNC(=O)CCCCCNC(=O)COc3ccc(/C=C/C4=[N+]5C(=Cc6ccc(-c7ccc[nH]7)n6[B-]5(F)F)C=C4)cc3)cc2)c2nc(-c3ccco3)nn12 [Compound 14]
